How the values were obtained:
[1] = tested on: Receptor-type tyrosine-protein kinase FLT3 (Homo sapiens), P36888 [R834Q]; details: Compound concentration 1000.0 nM
[2] = tested on: Receptor-type tyrosine-protein kinase FLT3 (Homo sapiens), P36888 [D835H]; details: Compound concentration 1000.0 nM
[3] = molecular target: MAP kinase-interacting serine/threonine-protein kinase 2 (Homo sapiens) (UniProt Q9HBH9); details: Compound concentration 1000.0 nM
[4] = molecular target: T1, Tyrosine-protein kinase TXK (Homo sapiens) (UniProt P42681); details: Compound concentration 1000.0 nM
T1 sequence (whole entry): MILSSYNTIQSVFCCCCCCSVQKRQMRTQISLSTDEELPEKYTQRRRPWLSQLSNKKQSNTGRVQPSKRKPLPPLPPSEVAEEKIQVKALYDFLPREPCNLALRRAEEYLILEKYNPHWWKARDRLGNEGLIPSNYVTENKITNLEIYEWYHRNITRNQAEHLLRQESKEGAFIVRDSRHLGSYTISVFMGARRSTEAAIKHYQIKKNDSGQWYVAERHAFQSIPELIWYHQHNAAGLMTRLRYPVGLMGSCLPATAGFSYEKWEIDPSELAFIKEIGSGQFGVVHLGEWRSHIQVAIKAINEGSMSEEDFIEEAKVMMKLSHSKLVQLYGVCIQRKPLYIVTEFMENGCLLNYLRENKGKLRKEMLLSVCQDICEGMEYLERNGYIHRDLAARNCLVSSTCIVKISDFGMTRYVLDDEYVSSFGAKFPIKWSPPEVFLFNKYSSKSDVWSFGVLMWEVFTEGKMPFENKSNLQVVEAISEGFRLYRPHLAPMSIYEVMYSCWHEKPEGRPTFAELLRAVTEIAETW

[5] = tested on: Epidermal growth factor receptor (Homo sapiens), P00533 [UNDEFINED MUTATION]; details: Compound concentration 1000.0 nM
[6] = molecular target: Serine/threonine-protein kinase SIK3 (Homo sapiens) (UniProt Q9Y2K2); details: Compound concentration 1000.0 nM
[7] = molecular target: Serine/threonine-protein kinase MARK2 (Homo sapiens) (UniProt Q7KZI7); details: Compound concentration 1000.0 nM
[8] = molecular target: Cyclin-dependent kinase 15 (Homo sapiens) (UniProt Q96Q40); details: Compound concentration 1000.0 nM
[9] = molecular target: Serine/threonine-protein kinase ULK2 (Homo sapiens) (UniProt Q8IYT8); details: Compound concentration 1000.0 nM
[10] = molecular target: Wee1-like protein kinase (Homo sapiens) (UniProt P30291); details: Compound concentration 1000.0 nM
[11] = molecular target: Receptor tyrosine-protein kinase erbB-3 (Homo sapiens) (UniProt P21860); details: Compound concentration 1000.0 nM
[12] = molecular target: 5-hydroxytryptamine receptor 1D (Homo sapiens) (UniProt P28221); details: Compound concentration 10.0 uM
[13] = molecular target: Non-receptor tyrosine-protein kinase TNK1 (Homo sapiens) (UniProt Q13470); details: Compound concentration 1000.0 nM
[14] = molecular target: T2, Serine/threonine-protein kinase Sgk1 (Homo sapiens) (UniProt O00141); details: Compound concentration 1000.0 nM
T2 sequence (whole entry): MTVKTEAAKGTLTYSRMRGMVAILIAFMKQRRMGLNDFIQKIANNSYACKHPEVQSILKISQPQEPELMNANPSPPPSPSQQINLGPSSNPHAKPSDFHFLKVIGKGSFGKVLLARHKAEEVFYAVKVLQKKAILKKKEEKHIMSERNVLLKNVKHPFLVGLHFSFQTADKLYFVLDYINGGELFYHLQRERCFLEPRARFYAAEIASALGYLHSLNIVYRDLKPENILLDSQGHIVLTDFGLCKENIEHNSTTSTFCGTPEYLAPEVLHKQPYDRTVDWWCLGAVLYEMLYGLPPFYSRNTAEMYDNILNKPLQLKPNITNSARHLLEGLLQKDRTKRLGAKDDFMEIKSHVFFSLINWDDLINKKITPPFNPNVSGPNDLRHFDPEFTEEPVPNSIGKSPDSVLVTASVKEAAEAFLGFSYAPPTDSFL

[15] = molecular target: Cyclin-dependent kinase 18 (Homo sapiens) (UniProt Q07002); details: Compound concentration 1000.0 nM
[16] = molecular target: Mitogen-activated protein kinase kinase kinase 19 (Homo sapiens) (UniProt Q56UN5); details: Compound concentration 1000.0 nM
[17] = molecular target: Mitogen-activated protein kinase 4 (Homo sapiens) (UniProt P31152); details: Compound concentration 1000.0 nM
[18] = molecular target: Histamine H4 receptor (Homo sapiens) (UniProt Q9H3N8); details: Compound concentration 10.0 uM
[19] = molecular target: Mitogen-activated protein kinase 11 (Homo sapiens) (UniProt Q15759); details: Compound concentration 1000.0 nM
[20] = molecular target: Ephrin type-A receptor 4 (Homo sapiens) (UniProt P54764); details: Compound concentration 1000.0 nM
[21] = molecular target: Mitogen-activated protein kinase 14 (Homo sapiens) (UniProt Q16539); details: Compound concentration 1000.0 nM
[22] = molecular target: Interleukin-1 receptor-associated kinase 3 (Homo sapiens) (UniProt Q9Y616); details: Compound concentration 1000.0 nM
[23] = molecular target: Cyclin-dependent kinase-like 5 (Homo sapiens) (UniProt O76039); details: Compound concentration 1000.0 nM
[24] = molecular target: Serine/threonine-protein kinase Nek4 (Homo sapiens) (UniProt P51957); details: Compound concentration 1000.0 nM
[25] = molecular target: Vascular endothelial growth factor receptor 1 (Homo sapiens) (UniProt P17948); details: Compound concentration 1000.0 nM
[26] = tested on: Tyrosine-protein kinase ABL1 (Homo sapiens), P00519 [H396P]; details: Compound concentration 1000.0 nM
[27] = molecular target: Calcium/calmodulin-dependent protein kinase type 1B (Homo sapiens) (UniProt Q6P2M8); details: Compound concentration 1000.0 nM

Chain of Cyclin-dependent kinase 18 (Homo sapiens) (Q07002 whole entry): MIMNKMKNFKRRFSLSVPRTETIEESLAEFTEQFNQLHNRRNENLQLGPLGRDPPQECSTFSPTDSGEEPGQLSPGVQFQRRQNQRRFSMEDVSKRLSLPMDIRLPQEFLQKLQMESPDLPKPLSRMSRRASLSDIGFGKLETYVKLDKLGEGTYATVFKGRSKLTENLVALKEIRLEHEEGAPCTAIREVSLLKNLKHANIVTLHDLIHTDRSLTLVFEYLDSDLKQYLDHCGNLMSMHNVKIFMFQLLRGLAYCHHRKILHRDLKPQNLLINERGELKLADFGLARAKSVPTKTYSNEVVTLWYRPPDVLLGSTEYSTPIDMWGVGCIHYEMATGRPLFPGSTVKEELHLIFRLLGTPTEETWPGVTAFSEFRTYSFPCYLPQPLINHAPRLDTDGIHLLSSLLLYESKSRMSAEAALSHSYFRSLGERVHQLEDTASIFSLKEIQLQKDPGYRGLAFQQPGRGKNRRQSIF
Chain of Serine/threonine-protein kinase SIK3 (Homo sapiens) (Q9Y2K2 whole entry, looked up): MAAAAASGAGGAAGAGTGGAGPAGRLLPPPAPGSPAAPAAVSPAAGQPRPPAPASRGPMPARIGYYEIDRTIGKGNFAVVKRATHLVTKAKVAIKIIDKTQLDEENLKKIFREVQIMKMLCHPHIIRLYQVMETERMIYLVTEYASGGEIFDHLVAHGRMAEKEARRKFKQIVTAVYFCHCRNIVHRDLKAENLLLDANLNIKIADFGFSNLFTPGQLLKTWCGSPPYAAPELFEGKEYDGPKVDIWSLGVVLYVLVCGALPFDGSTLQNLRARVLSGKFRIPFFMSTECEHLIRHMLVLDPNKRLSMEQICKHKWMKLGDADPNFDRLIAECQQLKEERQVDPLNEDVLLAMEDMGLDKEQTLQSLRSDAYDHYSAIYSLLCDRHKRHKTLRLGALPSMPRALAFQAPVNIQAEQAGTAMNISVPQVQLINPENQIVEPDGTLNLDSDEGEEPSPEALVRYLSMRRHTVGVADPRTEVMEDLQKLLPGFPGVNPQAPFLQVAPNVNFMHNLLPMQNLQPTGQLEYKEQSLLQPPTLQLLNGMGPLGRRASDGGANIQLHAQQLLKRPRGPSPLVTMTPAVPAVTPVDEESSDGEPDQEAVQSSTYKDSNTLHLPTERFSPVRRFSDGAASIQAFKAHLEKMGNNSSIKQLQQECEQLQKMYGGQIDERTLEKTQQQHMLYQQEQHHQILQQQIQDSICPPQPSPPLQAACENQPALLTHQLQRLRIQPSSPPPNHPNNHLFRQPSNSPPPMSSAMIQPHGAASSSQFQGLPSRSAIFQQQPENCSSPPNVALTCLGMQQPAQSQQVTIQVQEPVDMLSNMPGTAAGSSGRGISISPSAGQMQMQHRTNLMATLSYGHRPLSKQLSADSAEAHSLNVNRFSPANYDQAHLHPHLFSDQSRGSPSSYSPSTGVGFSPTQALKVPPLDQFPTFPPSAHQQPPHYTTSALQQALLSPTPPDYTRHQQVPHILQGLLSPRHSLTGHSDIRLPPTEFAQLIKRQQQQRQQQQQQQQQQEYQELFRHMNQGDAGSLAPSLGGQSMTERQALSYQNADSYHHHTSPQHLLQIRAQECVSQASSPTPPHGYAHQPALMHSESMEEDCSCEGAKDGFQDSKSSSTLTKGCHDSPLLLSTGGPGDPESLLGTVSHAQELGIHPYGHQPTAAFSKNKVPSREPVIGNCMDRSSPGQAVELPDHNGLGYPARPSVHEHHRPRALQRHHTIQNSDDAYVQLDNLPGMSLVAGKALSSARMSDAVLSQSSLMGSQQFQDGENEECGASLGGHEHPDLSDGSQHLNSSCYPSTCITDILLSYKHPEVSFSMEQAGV
Chain of Mitogen-activated protein kinase 4 (Homo sapiens) (P31152 whole entry): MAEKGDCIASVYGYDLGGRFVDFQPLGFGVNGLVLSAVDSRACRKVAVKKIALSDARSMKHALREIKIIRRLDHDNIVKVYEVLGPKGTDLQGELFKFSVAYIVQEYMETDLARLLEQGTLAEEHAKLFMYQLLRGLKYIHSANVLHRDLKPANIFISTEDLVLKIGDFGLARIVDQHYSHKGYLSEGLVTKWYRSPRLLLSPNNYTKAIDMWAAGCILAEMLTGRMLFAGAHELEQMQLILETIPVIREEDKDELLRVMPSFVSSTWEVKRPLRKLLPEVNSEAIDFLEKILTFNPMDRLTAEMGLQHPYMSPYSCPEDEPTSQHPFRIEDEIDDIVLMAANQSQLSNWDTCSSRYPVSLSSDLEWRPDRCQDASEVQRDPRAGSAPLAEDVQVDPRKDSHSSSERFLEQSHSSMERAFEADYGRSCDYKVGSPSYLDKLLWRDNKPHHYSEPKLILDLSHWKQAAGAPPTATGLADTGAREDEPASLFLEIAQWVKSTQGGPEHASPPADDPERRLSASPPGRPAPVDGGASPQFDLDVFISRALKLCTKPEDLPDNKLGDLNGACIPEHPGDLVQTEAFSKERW
Chain of Mitogen-activated protein kinase kinase kinase 19 (Homo sapiens) (Q56UN5 whole entry): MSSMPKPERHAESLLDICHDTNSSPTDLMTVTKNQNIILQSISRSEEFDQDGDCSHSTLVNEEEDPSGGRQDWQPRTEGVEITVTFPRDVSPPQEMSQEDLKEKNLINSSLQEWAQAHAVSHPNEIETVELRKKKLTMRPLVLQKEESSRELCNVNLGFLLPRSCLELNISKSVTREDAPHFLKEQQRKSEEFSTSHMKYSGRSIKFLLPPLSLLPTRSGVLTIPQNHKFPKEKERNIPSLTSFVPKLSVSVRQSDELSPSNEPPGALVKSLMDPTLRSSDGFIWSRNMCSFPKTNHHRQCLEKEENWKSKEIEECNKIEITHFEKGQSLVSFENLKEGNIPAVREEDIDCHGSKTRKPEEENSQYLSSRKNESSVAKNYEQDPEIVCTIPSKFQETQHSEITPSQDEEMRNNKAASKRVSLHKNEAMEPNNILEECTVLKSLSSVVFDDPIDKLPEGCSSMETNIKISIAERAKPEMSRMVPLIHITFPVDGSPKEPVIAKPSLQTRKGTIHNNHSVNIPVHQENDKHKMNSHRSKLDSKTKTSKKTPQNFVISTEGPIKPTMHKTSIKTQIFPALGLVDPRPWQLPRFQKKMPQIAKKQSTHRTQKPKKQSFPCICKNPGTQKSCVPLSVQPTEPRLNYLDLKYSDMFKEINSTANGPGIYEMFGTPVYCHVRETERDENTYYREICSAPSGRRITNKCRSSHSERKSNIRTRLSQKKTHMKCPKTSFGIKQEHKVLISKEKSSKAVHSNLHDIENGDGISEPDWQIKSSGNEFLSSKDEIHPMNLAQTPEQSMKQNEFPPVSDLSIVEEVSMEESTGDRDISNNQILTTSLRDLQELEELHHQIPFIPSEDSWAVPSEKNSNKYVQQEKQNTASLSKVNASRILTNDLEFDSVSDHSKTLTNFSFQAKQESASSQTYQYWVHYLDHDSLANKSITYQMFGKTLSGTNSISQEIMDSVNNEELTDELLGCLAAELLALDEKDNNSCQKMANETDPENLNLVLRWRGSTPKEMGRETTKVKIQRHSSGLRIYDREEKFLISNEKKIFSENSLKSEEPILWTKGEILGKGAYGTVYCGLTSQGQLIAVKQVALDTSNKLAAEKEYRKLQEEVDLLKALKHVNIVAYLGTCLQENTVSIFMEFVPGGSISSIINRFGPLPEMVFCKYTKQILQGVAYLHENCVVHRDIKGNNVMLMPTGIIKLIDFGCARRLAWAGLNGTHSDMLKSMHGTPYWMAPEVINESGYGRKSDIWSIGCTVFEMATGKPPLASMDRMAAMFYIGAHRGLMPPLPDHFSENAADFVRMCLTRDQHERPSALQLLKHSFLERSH
Chain of Cyclin-dependent kinase 15 (Homo sapiens) (Q96Q40 whole entry): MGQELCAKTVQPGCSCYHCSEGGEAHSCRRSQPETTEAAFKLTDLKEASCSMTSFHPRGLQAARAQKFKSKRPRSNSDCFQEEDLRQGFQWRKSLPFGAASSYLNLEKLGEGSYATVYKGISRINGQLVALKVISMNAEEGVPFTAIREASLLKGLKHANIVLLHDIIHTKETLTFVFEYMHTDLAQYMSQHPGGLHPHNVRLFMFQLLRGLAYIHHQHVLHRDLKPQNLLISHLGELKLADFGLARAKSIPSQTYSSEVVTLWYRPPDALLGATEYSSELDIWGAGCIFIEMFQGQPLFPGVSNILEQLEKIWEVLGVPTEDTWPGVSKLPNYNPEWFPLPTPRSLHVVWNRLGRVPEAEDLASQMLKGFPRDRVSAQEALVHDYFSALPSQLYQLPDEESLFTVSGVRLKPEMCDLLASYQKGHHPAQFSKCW
Chain of Wee1-like protein kinase (Homo sapiens) (P30291 whole entry, looked up): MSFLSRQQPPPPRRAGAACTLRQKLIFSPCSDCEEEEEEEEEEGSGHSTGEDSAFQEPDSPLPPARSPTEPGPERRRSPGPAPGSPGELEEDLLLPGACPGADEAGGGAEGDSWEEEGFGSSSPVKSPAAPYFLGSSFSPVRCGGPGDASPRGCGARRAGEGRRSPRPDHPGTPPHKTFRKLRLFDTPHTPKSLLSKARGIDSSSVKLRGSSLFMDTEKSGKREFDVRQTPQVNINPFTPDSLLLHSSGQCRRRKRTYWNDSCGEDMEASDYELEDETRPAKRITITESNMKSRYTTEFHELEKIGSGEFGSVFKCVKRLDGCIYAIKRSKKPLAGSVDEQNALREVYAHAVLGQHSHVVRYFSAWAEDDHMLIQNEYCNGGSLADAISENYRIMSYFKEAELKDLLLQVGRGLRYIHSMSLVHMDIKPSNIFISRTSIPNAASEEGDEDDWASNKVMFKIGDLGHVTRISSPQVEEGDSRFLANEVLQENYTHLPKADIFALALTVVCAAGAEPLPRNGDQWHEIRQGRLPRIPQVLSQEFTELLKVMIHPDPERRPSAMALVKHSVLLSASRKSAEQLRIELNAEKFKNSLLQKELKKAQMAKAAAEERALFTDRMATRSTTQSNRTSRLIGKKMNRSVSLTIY

Compound	residual activity [1] [%]	residual activity [2] [%]	residual activity [3] [%]	residual activity [4] [%]	residual activity [5] [%]	residual activity [6] [%]	residual activity [7] [%]	residual activity [8] [%]	residual activity [9] [%]	residual activity [10] [%]	residual activity [11] [%]	inhibition [12] [%]	residual activity [13] [%]	residual activity [14] [%]	residual activity [15] [%]	residual activity [16] [%]	residual activity [17] [%]	inhibition [18] [%]	residual activity [19] [%]	residual activity [20] [%]	further results
CN(C)C(=O)Cn1cc(-c2nc(C3(c4ccc(-c5cnc(N)nc5)cc4)CC3)no2)cn1 [BI 0153]	90	93	94	98	67	100	92	100	78	87	87	-3.06	96	96	83	73	100	36.6	86	100	residual activity [21]: 100%; residual activity [22]: 96%; residual activity [23]: 82%; residual activity [24]: 95%; residual activity [25]: 100%; residual activity [26]: 100%; residual activity [27]: 77%
CN(C)C(=O)Cn1cc(-c2nc([C@@](C)(c3ccc(-c4cnc(N)nc4)cc3)C3CC3)no2)cn1 [BI 665915]	87	86	88	96	100	70	100	94	100	94	95	-5.95	100	91	100	61	88	55.2	97	100	residual activity [21]: 90%; residual activity [22]: 100%; residual activity [23]: 89%; residual activity [24]: 88%; residual activity [25]: 100%; residual activity [26]: 80%; residual activity [27]: 88%
